# Test results as given in patent publication US20200170259A1, “COMPOSITIONS AND METHODS FOR INDUCING PLANT GENE EXPRESSION AND ALTERING PLANT MICROBIOME COMPOSITION FOR IMPROVED CROP PERFORMANCE” (ADVANCED BIOLOGICAL MARKETING, INC., priority 2018, published 2020).
# What was measured:
# corn gene expression = test: RNAseq of corn seedlings, variability of gene expression (FIGS. 17-19); format: in vivo
# Text: Plants colonized by Trichoderma show highly focused and reproducible patterns of gene expression. Uncolonized plants show highly variable gene expression. We propose that gene expression in plants colonized by Trichoderma responds specifically to that colonization and further that Trichoderma redirects plant gene expression to more targeted biological processes supporting Trichoderma niche development. Gene expression in uncolonized plants responds to the entire set of environmental factors present with relatively little process hierarchy. FIG. 17 depicts a representation of all gene expression in corn seedlings exposed to various seed treatments versus an untreated seed in both standard and drought conditions. FIG. 17 further groups the applicable replicates in order to convey variability, and data sets refer to principal component analysis, in order to evidence variability. All samples with the exception of the Trichoderma metabolite (1-Octene-3-ol), are root apical meristem (RAM) measurements. The sampling occurred from seeds that were grown for seven days before sampling. Observed variability was high in corn gene expression in standard and drought conditions. (See untreated). […] (see SabrEx and Oct). Thus, untreated plants are busy responding to a lot of environmental factors, Trichoderma strain treatment/1-Octene-3-ol treated plants are controlled somewhat by the treatment, which supports findings in previous RNAseq experiments, where correlation is shown by the reduction in microbiome diversity in the field, in the reduction of error bars in field performance data. This is a clear benefit of Trichoderma strain treatment and metabolite (1-Octene-3-ol). Reduction of variable performance in the field is therefore because the plant gene expression has been remodeled or refined by Trichoderma. FIGS. 18A-B depict multidimensional scaling plots of corn gene expression when colonized by Trichoderma, particularly, 2-Trichoderma strain treatment and untreated in unstressed conditions. […]
# maize gene expression = test: Differential gene expression (Blast 2Go DGE) in maize versus control (FIGS. 20-25); format: in vivo
# Procedure: Turning to FIGS. 20-24, differential gene expression (Blast 2Go DGE) is measured, wherein the corresponding legend of FIG. 20 presents comparison to a control, wherein the higher scale shown (color or patterned), the higher level of upregulation has occurred.
# The lab plants were grown in conical tubes with nutrient bath and to simulate osmotic stress from drought they added a polyethylene glycol (PEG) solution to the tubes.
# FIG. 25 depicts a table of changes in corn gene expression versus an untreated control in RNAseq experiments of FIGS. 20-24. Reference to “Lab (sterile, no soil)” is the data from the conical tube experiments of FIG. 23 and FIG. 24.
# rhizosphere inhabitants = settings: in vivo
# Procedure: A survey of rhizosphere inhabitants in a corn trial with control, Trichoderma strain treatment for corn (2 ABM Trichoderma strains), [MUT] (ABM Trichoderma+Bacillus strains), or Trichoderma metabolite (1-Octene-3-ol) seed treatments was made. The organism lifestyle metadata were analyzed for each treatment.
smiles,measurement,setting,value
C=CC(O)CCCCC (centres unmarked) [1-Octene-3-ol],Reproducibility of expression pattern (multidimensional scaling plot),"corn gene expression; FIGS. 18A-B, unstressed conditions per legend",generally more reproducible expression pattern than the untreated
same,Reproducibility of expression pattern (multidimensional scaling plot),"corn gene expression; FIGS. 19A-B, drought conditions per legend",generally more reproducible expression pattern than the untreated
same,Effect on variability of overall corn gene expression (principal component analysis),"corn gene expression; seedlings grown seven days, standard and drought conditions, FIG. 17",focusses gene expression
same,Shoot responses upregulated,maize gene expression,"Abiotic stimulus, water deprivation, and chemical stimulus"
same,Plant disease resulting from rhizosphere pathogens,rhizosphere inhabitants,did not result in plant disease
